Where two headings read alike, the source gives them in different places.
Legend:
[1] = target: T1, PDE4D (Homo sapiens, UniProt Q08499); experiment: PDE4 IC50 determination by Scintillation Proximity Assay, PDE4D; type: biochemical
T1 construct: PDE4D: The catalytic domain of human PDE4B from S3 16-V692; His6 (N); thrombin cleavage site (N); made in house; host or cells: E. coli
In short: (§1)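 Scintillation counts reflected [^3H]AMP captured on yttrium silicate SPA beads after enzyme hydrolysed [^3H]cAMP for 30 min at 30°. PDE4B was used at 80 ng/ml and PDE4D at 4 ng/ml. IC50 values came from non-linear regression.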

[2] = target: T2, PDE4B: The catalytic domain of human PDE4B from S152-S528 (Homo sapiens, UniProt Q07343); experiment: PDE4 IC50 determination by Scintillation Proximity Assay, PDE4B; type: biochemical
T2 construct: His6 (N); thrombin cleavage site (N); made in house; host or cells: E. coli
In short: as §1

[3] = Table 1B, Formula I compounds, read-out: IC50 PDE4D
[4] = Table 1B, Formula I compounds, read-out: IC50 PDE4B
[5] = first part of Table 2B (2-1 to 2-22), read-out: IC 50 vs. indicated assay PDE4D
[6] = first part of Table 2B (2-1 to 2-22), read-out: IC 50 vs. indicated assay PDE4B
[7] = second part of Table 2B (2-23 to 2-103), column 5, column is PDE4D in first part, read-out: IC 50 vs. indicated assay h TNFα
[8] = second part of Table 2B (2-23 to 2-103), column 3, column is PDE4B in first part, read-out: IC 50 vs. indicated assay h TNFα

T1 sequence (Q08499 380-756): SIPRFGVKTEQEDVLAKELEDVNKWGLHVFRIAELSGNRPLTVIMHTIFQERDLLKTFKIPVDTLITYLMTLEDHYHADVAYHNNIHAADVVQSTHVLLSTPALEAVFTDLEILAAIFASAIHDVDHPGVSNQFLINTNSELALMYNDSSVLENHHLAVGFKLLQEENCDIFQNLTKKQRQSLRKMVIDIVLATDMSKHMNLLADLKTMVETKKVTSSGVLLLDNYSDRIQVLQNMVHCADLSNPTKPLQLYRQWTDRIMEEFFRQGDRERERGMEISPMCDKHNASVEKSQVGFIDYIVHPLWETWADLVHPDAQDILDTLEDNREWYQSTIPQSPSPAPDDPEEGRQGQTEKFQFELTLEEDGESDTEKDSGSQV
T2 sequence (Q07343 with tags, fused parts or gaps): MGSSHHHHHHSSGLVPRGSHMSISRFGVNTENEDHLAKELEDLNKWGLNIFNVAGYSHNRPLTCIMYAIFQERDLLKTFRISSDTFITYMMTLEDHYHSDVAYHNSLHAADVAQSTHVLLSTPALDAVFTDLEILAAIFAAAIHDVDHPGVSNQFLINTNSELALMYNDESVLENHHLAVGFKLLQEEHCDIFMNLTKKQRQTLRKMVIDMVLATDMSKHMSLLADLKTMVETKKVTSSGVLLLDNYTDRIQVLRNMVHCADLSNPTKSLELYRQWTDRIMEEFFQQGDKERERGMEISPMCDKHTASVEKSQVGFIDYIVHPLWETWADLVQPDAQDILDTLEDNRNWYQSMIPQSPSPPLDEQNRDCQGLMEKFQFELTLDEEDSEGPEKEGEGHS

SMILES | IC50 [1, 3] | IC50 [2, 4] | IC50 [1, 5] | IC50 [2, 6] | other results
N#Cc1c(Nc2ccc(Oc3ccccc3)cc2)sc(C(N)=O)c1N [Compound 1-197, 3-Amino-4-cyano-5-(4-phenoxy-phenylamino)-thiophene-2-carboxylic acid amide] | > 10 µM | > 10 µM | – | – | –
CCOC(=O)c1sc(NC2CCCC2)c(C#N)c1N [Compound 1-199, 3-Amino-4-cyano-5-cyclopentylamino-thiophene-2-carboxylic acid ethyl ester] | < 10 µM | < 10 µM | – | – | –
CCOC(=O)C(=O)c1sc(NC2CCCC2)c(C#N)c1N [Compound 1-201, (3-Amino-4-cyano-5-cyclopentylamino-thiophen-2-yl)-oxo-acetic acid ethyl ester] | < 10 µM | < 10 µM | – | – | –
N#Cc1c(NC2CCCC2)sc(C(=O)c2ccsc2)c1N [Compound 1-202, 4-Amino-2-cyclopentylamino-5-(thiophene-3-carbonyl)-thiophene-3-carbonitrile] | < 10 µM | < 10 µM | – | – | –
N#Cc1c(NC2CCCC2)sc(C(=O)c2ccc(-c3ccccc3)s2)c1N [Compound 1-203, 4-Amino-2-cyclopentylamino-5-(5-phenyl-thiophene-2-carbonyl)-thiophene-3-carbonitrile] | < 10 µM | < 10 µM | – | – | –
N#Cc1c(NC2CCCC2)sc(C(=O)c2cc(Br)no2)c1N [Compound 1-207, 4-Amino-5-(3-bromo-isoxazole-5-carbonyl)-2-cyclopentylamino-thiophene-3-carbonitrile] | < 10 µM | < 10 µM | – | – | –
CC(C)Nc1sc(C(=O)c2ccc(Cl)c(Cl)c2)c(N)c1C#N [Compound 1-217, 4-Amino-5-(3,4-dichloro-benzoyl)-2-isopropylamino-thiophene-3-carbonitrile] | < 10 µM | < 10 µM | – | – | –
CN1CCN(C(=O)C(=O)c2sc(NC3CCCC3)c(C#N)c2N)CC1 [Compound 1-218, 4-Amino-2-cyclopentylamino-5-[2-(4-methyl-piperazin-1-yl)-2-oxo-acetyl]-carbonitrile] | > 10 µM | > 10 µM | – | – | –
CCC(CC)Nc1sc(C(=O)c2ccc(Oc3ccccc3)cc2)c(N)c1C#N [Compound 1-229, 4-Amino-2-(1-ethyl-propylamino)-5-(4-phenoxy-benzoyl)-thiophene-3-carbonitrile] | < 10 µM | < 10 µM | – | – | –
CC(C)Nc1sc(C(=O)c2ccc(Oc3ccccc3)cc2)c(N)c1C#N [Compound 1-230, 4-Amino-2-isopropylamino-5-(4-phenoxy-benzoyl)-thiophene-3-carbonitrile] | < 10 µM | < 10 µM | – | – | –
N#Cc1c(NC2CCCC2)sc(C(=O)c2ccc(Oc3ccccc3)cc2)c1N [Compound 1-231, 4-Amino-2-cyclopentylamino-5-(4-phenoxy-benzoyl)-thiophene-3-carbonitrile] | < 10 µM | < 10 µM | – | – | –
CCC(C)Nc1sc(C(=O)c2ccc(Oc3ccccc3)cc2)c(N)c1C#N (stereo not shown) [Compound 1-232, 4-Amino-2-sec-butylamino-5-(4-phenoxy-benzoyl)-thiophene-3-carbonitrile] | < 10 µM | < 10 µM | – | – | –
Cc1sc(-c2ccccc2)cc1C(=O)c1sc(NC2CCCC2)c(C#N)c1N [Compound 1-234, 4-Amino-2-cyclopentylamino-5-(2-methyl-5-phenyl-thiophene-3-carbonyl)-thiophene-3-carbonitrile] | < 10 µM | < 10 µM | – | – | –
N#Cc1c(NC2CCCC2)sc(C(=O)c2csc(-c3ccccc3)n2)c1N [Compound 1-235, 4-Amino-2-cyclopentylamino-5-(2-phenyl-thiazole-4-carbonyl)-thiophene-3-carbonitrile] | < 10 µM | < 10 µM | – | – | –
CCOC(=O)c1cc(C(=O)c2sc(Nc3ccc(OC)cc3)nc2N)on1 [Compound 2-2, 5-[4-Amino-2-(4-methoxy-phenylamino)-thiazole-5-carbonyl]-isoxazole-3-carboxylic acid ethyl ester] | – | – | < 10 µM | < 10 µM | –
CCOC(=O)c1cc(C(=O)c2sc(Nc3ccc(Oc4ccccc4)cc3)nc2N)on1 [Compound 2-3, 5-[4-Amino-2-(4-phenoxy-phenylamino)-thiazole-5-carbonyl]-isoxazole-3-carboxylic acid ethyl ester] | – | – | > 10 µM | > 10 µM | –
CCOC(=O)c1cc(C(=O)c2sc(NC3CCCC3)nc2N)on1 [Compound 2-4, 5-(4-Amino-2-cyclopentylamino-thiazole-5-carbonyl)-isoxazole-3-carboxylic acid ethyl ester] | – | – | < 10 µM | < 10 µM | –
CCOC(=O)c1cc(C(=O)c2sc(NC3CC3)nc2N)on1 [Compound 2-5, 5-(4-Amino-2-cyclopropylamino-thiazole-5-carbonyl)-isoxazole-3-carboxylic acid ethyl ester] | – | – | < 10 µM | < 10 µM | –

SMILES | IC50 [1, 3] | IC50 [2, 4] | IC50 [1, 5] | IC50 [2, 6] | other results
COc1ccc(Nc2nc(N)c(C(=O)c3cc(-c4ccccc4)no3)s2)cc1 [Compound 2-7, [4-Amino-2-(4-methoxy-phenylamino)-thiazol-5-yl]-(3-phenyl-isoxazol-5-yl)-methanone] | – | – | < 10 µM | < 10 µM | –
Nc1nc(NC2CC2)sc1C(=O)c1cc(-c2ccccc2)no1 [Compound 2-10, (4-Amino-2-cyclopropylamino-thiazol-5-yl)-(3-phenyl-isoxazol-5-yl)-methanone] | – | – | < 10 µM | < 10 µM | –
CC(C)Nc1nc(N)c(C(=O)c2cc(-c3ccccc3)no2)s1 [Compound 2-11, (4-Amino-2-isopropylamino-thiazol-5-yl)-(3-phenyl-isoxazol-5-yl)-methanone] | – | – | < 10 µM | < 10 µM | –
Nc1nc(NC2CCCC2)sc1C(=O)c1cc(-c2ccc(Cl)cc2)no1 [Compound 2-12, (4-Amino-2-cyclopentylamino-thiazol-5-yl)-[3-(4-chloro-phenyl)-isoxazol-5-yl]-methanone] | – | – | < 10 µM | < 10 µM | –
CC(C)Nc1nc(N)c(C(=O)c2cc(-c3ccc(Cl)cc3)no2)s1 [Compound 2-13, (4-Amino-2-isopropylamino-thiazol-5-yl)-[3-(4-chloro-phenyl)-isoxazol-5-yl]-methanone] | – | – | < 10 µM | < 10 µM | –
CC(C)Nc1nc(N)c(C(=O)c2cc(-c3ccc(Cl)c(Cl)c3)no2)s1 [Compound 2-14, (4-Amino-2-isopropylamino-thiazol-5-yl)-[3-(3,4-dichloro-phenyl)-isoxazol-5-yl]-methanone] | – | – | < 10 µM | < 10 µM | –
CC(C)CNc1nc(N)c(C(=O)c2cc(-c3ccc(Cl)c(Cl)c3)no2)s1 [Compound 2-15, (4-Amino-2-isobutylamino-thiazol-5-yl)-[3-(3,4-dichloro-phenyl)-isoxazol-5-yl]-methanone] | – | – | < 10 µM | < 10 µM | –
CC(C)CNc1nc(N)c(C(=O)c2cc(-c3ccc(Cl)cc3)no2)s1 [Compound 2-16, (4-Amino-2-isobutylamino-thiazol-5-yl)-[3-(4-chloro-phenyl)-isoxazol-5-yl]-methanone] | – | – | < 10 µM | < 10 µM | –
Nc1nc(NC2CCCC2)sc1C(=O)c1ccc(-c2ccccn2)s1 [Compound 2-17, (4-Amino-2-cyclopentylamino-thiazol-5-yl)-(5-pyridin-2-yl-thiophen-2-yl)-methanone] | – | – | < 10 µM | < 10 µM | –
Nc1nc(NC2CCCC2)sc1C(=O)c1ccc(-c2ccccc2)s1 [Compound 2-18, (4-Amino-2-cyclopentylamino-thiazol-5-yl)-(5-phenyl-thiophen-2-yl)-methanone] | – | – | < 10 µM | < 10 µM | –
Cc1sc(-c2ccccc2)cc1C(=O)c1sc(NC2CCCC2)nc1N [Compound 2-20, (4-Amino-2-cyclopentylamino-thiazol-5-yl)-(2-methyl-5-phenyl-thiophen-3-yl)-methanone] | – | – | < 10 µM | < 10 µM | –
Cc1c(C(=O)c2sc(NC3CCCC3)nc2N)cnn1-c1ccccc1 [Compound 2-21, (4-Amino-2-cyclopentylamino-thiazol-5-yl)-(5-methyl-1-phenyl-1H-pyrazol-4-yl)-methanone] | – | – | < 10 µM | < 10 µM | –
Cc1nc(-c2cnccn2)sc1C(=O)c1sc(NC2CCCC2)nc1N [Compound 2-22, (4-Amino-2-cyclopentylamino-thiazol-5-yl)-(4-methyl-2-pyrazin-2-yl-thiazol-5-yl)-methanone] | – | – | < 10 µM | < 10 µM | –
Nc1nc(Nc2ccc(Cl)cc2)sc1C(=O)c1cccc([N+](=O)[O-])c1 [Compound 2-24, [4-Amino-2-(4-chloro-phenylamino)-thiazol-5-yl]-(3-nitro-phenyl)-methanone] | – | – | – | – | IC50 [1, 7]: < 10 µM; IC50 [2, 8]: < 10 µM
Nc1nc(Nc2ccccc2)sc1C(=O)c1ccccc1 [Compound 2-25, (4-Amino-2-phenylamino-thiazol-5-yl)-phenyl-methanone] | – | – | – | – | IC50 [1, 7]: < 10 µM; IC50 [2, 8]: < 10 µM
Nc1nc(Nc2ccc(Cl)cc2)sc1C(=O)c1ccccc1 [Compound 2-26, [4-Amino-2-(4-chloro-phenylamino)-thiazol-5-yl]-phenyl-methanone] | – | – | – | – | IC50 [1, 7]: < 10 µM; IC50 [2, 8]: < 10 µM
Nc1nc(Nc2ccc(Cl)cc2)sc1C(=O)c1ccc(Br)cc1 [Compound 2-27, [4-Amino-2-(4-chloro-phenylamino)-thiazol-5-yl]-(4-bromo-phenyl)-methanone] | – | – | – | – | IC50 [1, 7]: < 10 µM; IC50 [2, 8]: < 10 µM

— patent publication US7585859B2, “PDE4B inhibitors and uses therefor” (Plexxikon, Inc., priority 2004, dated 2009)
